Reference: patent US10681909B2, “Herbicidal triazoles” (FMC Corporation, priority 2014, dated 2020)

What was measured:
[1] = tested on: galium; test: Test A postemergence; type: in vivo, Galium aparine; conditions: 0 to 100 scale (0 no effect, 100 complete control), approx. 10 d
Outline: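 Visual injury score, 0 (no effect) to 100 (complete control), taken about 10 d after treatment against untreated greenhouse controls. Chemicals formulated in non-phytotoxic solvent plus surfactant; preemergence by directed soil spray onto sown loam/sand, postemergence onto one- to two-leaf plants.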

[2] = tested on: foxtail, giant; test: Test C preemergence; type: in vivo, Setaria faberii; conditions: for Plant response rating (scale of 0 to 100 where 0 is no effect and 100 is complete control): Foxtail, Giant, preemergence; for Foxtail, Giant plant response rating (0 to 100): Preemergence, visual rating after 13 to 15 d
Outline: (§1)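 Plants are treated postemergence at the 1- to 4-leaf stage (2 to 18 cm), grown in sphagnum peat/vermiculite medium; preemergence treatment is applied to seed planted in loam soil with sand. Both use test chemical in a non-phytotoxic solvent mixture with surfactant.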

[3] = tested on: johnsongrass; test: Test C preemergence; type: in vivo, Sorghum halepense; conditions: for Plant response rating (scale of 0 to 100 where 0 is no effect and 100 is complete control): Johnsongrass, preemergence; for Johnsongrass plant response rating (0 to 100): Preemergence, visual rating after 13 to 15 d
Outline: as §1

[4] = tested on: soybean; test: Test C preemergence; type: in vivo, Glycine max; conditions: for Soybean plant response rating (0 to 100): Preemergence, visual rating after 13 to 15 d
Outline: as §1

[5] = tested on: bromegrass, down; test: Test D preemergence; type: in vivo, Bromus tectorum; conditions: for Plant response rating: Bromegrass, Down: scale 0 to 100
Outline: (§2)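 Visual injury ratings compared with untreated controls, taken 14 to 21 d after treatment in a controlled growth environment. Test chemicals were formulated in a surfactant-containing non-phytotoxic solvent and applied either preemergence to seeds in silt loam soil or postemergence to plants at the 1- to 4-leaf stage.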

[6] = tested on: Russian thistle; test: Test D preemergence; type: in vivo, Salsola kali; conditions: for Plant response rating: Russian Thistle: scale 0 to 100
Outline: as §2

[7] = tested on: speedwell; test: Test D preemergence; type: in vivo, Veronica persica; conditions: for Plant response rating: Speedwell: scale 0 to 100
Outline: as §2

[8] = tested on: barley, spring; test: Test D preemergence; type: in vivo, Hordeum vulgare; conditions: for Plant response rating: Barley, Spring: scale 0 to 100
Outline: as §2

[9] = tested on: barley, winter; test: Test D preemergence; type: in vivo, Hordeum vulgare; conditions: for Plant response rating: Barley, Winter: scale 0 to 100
Outline: as §2

[10] = tested on: radish, wild; test: Test D preemergence; type: in vivo, Raphanus raphanistrum; conditions: for Plant response rating: Radish, Wild: scale 0 to 100
Outline: as §2

[11] = tested on: bromegrass, down; test: Test D postemergence; type: in vivo, Bromus tectorum; conditions: scale 0 to 100
Outline: as §2

[12] = tested on: lambsquarters; test: Test D postemergence; type: in vivo, Chenopodium album; conditions: scale 0 to 100
Outline: as §2

[13] = tested on: radish, wild; test: Test D postemergence; type: in vivo, Raphanus raphanistrum; conditions: scale 0 to 100
Outline: as §2

[14] = 16 g ai/ha, 0 is no effect, 100 is complete control

FC(F)(F)COc1nc(-c2ccccc2)nn1Cc1ccnc(C(F)(F)F)c1 [Compound 24]
Plant response rating, Galium ([1]; 125 g ai/ha): 70 | Plant response rating, Galium ([1]; 500 g ai/ha): 90 | Plant response rating (scale of 0 to 100 where 0 is no effect and 100 is complete control) ([2]; 125 g ai/ha): 98 | Plant response rating (scale of 0 to 100 where 0 is no effect and 100 is complete control) ([2]; 250 g ai/ha): 100 | Foxtail, Giant plant response rating (0 to 100) ([2]; 31 g ai/ha): 80 | Foxtail, Giant plant response rating (0 to 100) ([2]; 62 g ai/ha): 95 | Plant response rating (scale of 0 to 100 where 0 is no effect and 100 is complete control) ([3]; 125 g ai/ha): 55 | Plant response rating (scale of 0 to 100 where 0 is no effect and 100 is complete control) ([3]; 250 g ai/ha): 85 | Johnsongrass plant response rating (0 to 100) ([3]; 31 g ai/ha): 10 | Johnsongrass plant response rating (0 to 100) ([3]; 62 g ai/ha): 40 | Soybean plant response rating (0 to 100) ([4]; 31 g ai/ha): 0 | Soybean plant response rating (0 to 100) ([4]; 62 g ai/ha): 5 | Plant response rating (scale of 0 to 100 where 0 is no effect and 100 is complete control) ([4]; Soybean, preemergence, 250 g ai/ha): 35 | Plant response rating (0 to 100), Bromegrass, Down [5, 14]: 25 | Plant response rating: Bromegrass, Down ([5]; 31 g ai/ha): 40 | Plant response rating: Bromegrass, Down ([5]; 62 g ai/ha): 35 | Plant response rating: Bromegrass, Down ([5]; 125 g ai/ha): 40 | Plant response rating (0 to 100), Russian Thistle [6, 14]: 65 | Plant response rating: Russian Thistle ([6]; 62 g ai/ha): 85 | Plant response rating: Russian Thistle ([6]; 125 g ai/ha): 85 | Plant response rating (0 to 100), Speedwell [7, 14]: 80 | Plant response rating: Speedwell ([7]; 62 g ai/ha): 100 | Plant response rating: Speedwell ([7]; 125 g ai/ha): 100 | Plant response rating (0 to 100), Barley, Spring [8, 14]: 20 | Plant response rating: Barley, Spring ([8]; 31 g ai/ha): 25 | Plant response rating: Barley, Spring ([8]; 62 g ai/ha): 30 | Plant response rating: Barley, Spring ([8]; 125 g ai/ha): 35 | Plant response rating (0 to 100), Barley, Winter [9, 14]: 15 | Plant response rating: Barley, Winter ([9]; 31 g ai/ha): 15 | Plant response rating: Barley, Winter ([9]; 62 g ai/ha): 25 | Plant response rating: Barley, Winter ([9]; 125 g ai/ha): 25 | Plant response rating (0 to 100), Radish, Wild [10, 14]: 45 | Plant response rating: Radish, Wild ([10]; 62 g ai/ha): 75 | Plant response rating: Radish, Wild ([10]; 125 g ai/ha): 100 | Plant response rating: Bromegrass, Down ([11]; 16 g ai/ha): 25 | Plant response rating: Bromegrass, Down ([11]; 31 g ai/ha): 40 | Plant response rating: Bromegrass, Down ([11]; 62 g ai/ha): 45 | Plant response rating: Bromegrass, Down ([11]; 125 g ai/ha): 50 | Plant response rating: Lambsquarters ([12]; 16 g ai/ha): 65 | Plant response rating: Lambsquarters ([12]; 31 g ai/ha): 75 | Plant response rating: Lambsquarters ([12]; 62 g ai/ha): 80 | Plant response rating: Lambsquarters ([12]; 125 g ai/ha): 85 | Plant response rating: Radish, Wild ([13]; 16 g ai/ha): 70 | Plant response rating: Radish, Wild ([13]; 31 g ai/ha): 95 | Plant response rating: Radish, Wild ([13]; 62 g ai/ha): 95 | Plant response rating: Radish, Wild ([13]; 125 g ai/ha): 95
